Assay results as given in PubChem BioAssay AID1259407 (Chemical Carcinogenesis Research Information System (CCRIS), 2018).
The source made the active and inactive calls. How the calls were made is not given here.

System: CCRIS mutagenicity, Ames/micronucleus/aberration tests
Test: CCRIS mutagenicity studies
[1] = Test System: MOUSE LYMPHOMA, Strain/Indicator: L5178Y (TK+/TK-), Metabolic Activation: RAT, LIVER, S-9, AROCLOR 1254, Method: SUSPENSION/PLATE
[2] = Test System: MOUSE LYMPHOMA, Strain/Indicator: L5178Y (TK+/TK-), Metabolic Activation: NONE, Method: SUSPENSION/PLATE

**Q.** What does the source list for `Oc1ccccc1F`?
**A.** mutagenic call [1]: active; positive. reevaluation of results: positive; mutagenic call (Test System: Mouse lymphoma, Strain/Indicator: L5178Y (tk+/tk-), Metabolic Activation: None, Method: Suspension/plate): inactive; negative; mutagenic call (Test System: Mouse lymphoma, Strain/Indicator: L5178Y (tk+/tk-), Metabolic Activation: Rat, Liver, S-9, Aroclor 1254, Method: Suspension/plate): inactive; inconclusive (previous evaluation negative)

**Q.** `CC1CCC(C(C)C)C(OC(=O)c2ccccc2N)C1` (stereo not given) was tested. Which mutagenic call (Test System: AMES SALMONELLA TYPHIMURIUM, Strain/Indicator: TA98, Metabolic Activation: HAMSTER, LIVER, S-9, AROCLOR 1254 (10%), Method: STANDARD PLATE) did it give?
**A.** inactive; negative

**Q.** What about the mutagenic call (Test System: AMES SALMONELLA TYPHIMURIUM, Strain/Indicator: TA98, Metabolic Activation: NONE, Method: STANDARD PLATE) of the same compound?
**A.** inactive; negative

**Q.** And the mutagenic call (Test System: AMES SALMONELLA TYPHIMURIUM, Strain/Indicator: TA98, Metabolic Activation: RAT, LIVER, S-9, AROCLOR 1254 (10%), Method: STANDARD PLATE)?
**A.** inactive; negative

**Q.** What about the mutagenic call (Test System: AMES SALMONELLA TYPHIMURIUM, Strain/Indicator: TA100, Metabolic Activation: HAMSTER, LIVER, S-9, AROCLOR 1254 (10%), Method: STANDARD PLATE) of the same compound?
**A.** inactive; negative

**Q.** And the mutagenic call (Test System: AMES SALMONELLA TYPHIMURIUM, Strain/Indicator: TA100, Metabolic Activation: NONE, Method: STANDARD PLATE)?
**A.** inactive; negative

**Q.** And the mutagenic call (Test System: AMES SALMONELLA TYPHIMURIUM, Strain/Indicator: TA100, Metabolic Activation: RAT, LIVER, S-9, AROCLOR 1254 (10%), Method: STANDARD PLATE)?
**A.** inactive; negative

**Q.** And the mutagenic call (Test System: AMES SALMONELLA TYPHIMURIUM, Strain/Indicator: TA1535, Metabolic Activation: HAMSTER, LIVER, S-9, AROCLOR 1254 (10%), Method: STANDARD PLATE)?
**A.** inactive; negative

**Q.** What about the mutagenic call (Test System: AMES SALMONELLA TYPHIMURIUM, Strain/Indicator: TA1535, Metabolic Activation: NONE, Method: STANDARD PLATE) of the same compound?
**A.** inactive; negative

**Q.** What about the mutagenic call (Test System: AMES SALMONELLA TYPHIMURIUM, Strain/Indicator: TA1535, Metabolic Activation: RAT, LIVER, S-9, AROCLOR 1254 (10%), Method: STANDARD PLATE) of the same compound?
**A.** inactive; negative

**Q.** What about the mutagenic call (Test System: AMES SALMONELLA TYPHIMURIUM, Strain/Indicator: TA1537, Metabolic Activation: HAMSTER, LIVER, S-9, AROCLOR 1254 (10%), Method: STANDARD PLATE) of the same compound?
**A.** inactive; negative

**Q.** And the mutagenic call (Test System: AMES SALMONELLA TYPHIMURIUM, Strain/Indicator: TA1537, Metabolic Activation: NONE, Method: STANDARD PLATE)?
**A.** inactive; negative

**Q.** What about the mutagenic call (Test System: AMES SALMONELLA TYPHIMURIUM, Strain/Indicator: TA1537, Metabolic Activation: RAT, LIVER, S-9, AROCLOR 1254 (10%), Method: STANDARD PLATE) of the same compound?
**A.** inactive; negative

**Q.** And the mutagenic call (Test System: AMES SALMONELLA TYPHIMURIUM, Strain/Indicator: TA1538, Metabolic Activation: HAMSTER, LIVER, S-9, AROCLOR 1254 (10%), Method: STANDARD PLATE)?
**A.** inactive; negative

**Q.** What about the mutagenic call (Test System: AMES SALMONELLA TYPHIMURIUM, Strain/Indicator: TA1538, Metabolic Activation: NONE, Method: STANDARD PLATE) of the same compound?
**A.** inactive; negative

**Q.** And the mutagenic call (Test System: AMES SALMONELLA TYPHIMURIUM, Strain/Indicator: TA1538, Metabolic Activation: RAT, LIVER, S-9, AROCLOR 1254 (10%), Method: STANDARD PLATE)?
**A.** inactive; negative

**Q.** And the mutagenic call [2]?
**A.** inactive; negative. reevaluation of results: negative

**Q.** What about the mutagenic call [1] of the same compound?
**A.** inactive; negative. reevaluation of results: equivocal

**Q.** `c1ccncc1` was tested. Which mutagenic call (Test System: AMES SALMONELLA TYPHIMURIUM, Strain/Indicator: TA98, Metabolic Activation: HAMSTER LIVER S-9, AROCLOR 1254, 10%, Method: PREINCUBATION) did it give?
**A.** inactive; negative

**Q.** And the mutagenic call (Test System: AMES SALMONELLA TYPHIMURIUM, Strain/Indicator: TA98, Metabolic Activation: NONE, Method: PREINCUBATION)?
**A.** inactive; negative

**Q.** And the mutagenic call (Test System: AMES SALMONELLA TYPHIMURIUM, Strain/Indicator: TA98, Metabolic Activation: RAT LIVER S-9, AROCLOR 1254, 10%, Method: PREINCUBATION)?
**A.** inactive; negative

**Q.** And the mutagenic call (Test System: AMES SALMONELLA TYPHIMURIUM, Strain/Indicator: TA98, Metabolic Activation: RAT LIVER S-9, PHENOBARBITAL AND BETA-NAPHTHOFLAVONE, Method: PREINCUBATION)?
**A.** inactive; negative

**Q.** And the mutagenic call (Test System: AMES SALMONELLA TYPHIMURIUM, Strain/Indicator: TA98, Metabolic Activation: RAT, LIVER, S-9, AROCLOR 1254, Method: PREINCUBATION)?
**A.** inactive; negative

**Q.** What about the mutagenic call (Test System: AMES SALMONELLA TYPHIMURIUM, Strain/Indicator: TA100, Metabolic Activation: HAMSTER LIVER S-9, AROCLOR 1254, 10%, Method: PREINCUBATION) of the same compound?
**A.** inactive; negative

**Q.** And the mutagenic call (Test System: AMES SALMONELLA TYPHIMURIUM, Strain/Indicator: TA100, Metabolic Activation: NONE, Method: PREINCUBATION)?
**A.** inactive; negative

**Q.** What about the mutagenic call (Test System: AMES SALMONELLA TYPHIMURIUM, Strain/Indicator: TA100, Metabolic Activation: RAT LIVER S-9, AROCLOR 1254, 10%, Method: PREINCUBATION) of the same compound?
**A.** inactive; negative

**Q.** What about the mutagenic call (Test System: AMES SALMONELLA TYPHIMURIUM, Strain/Indicator: TA100, Metabolic Activation: RAT LIVER S-9, PHENOBARBITAL AND BETA-NAPHTHOFLAVONE, Method: PREINCUBATION) of the same compound?
**A.** inactive; negative

**Q.** What about the mutagenic call (Test System: AMES SALMONELLA TYPHIMURIUM, Strain/Indicator: TA100, Metabolic Activation: RAT, LIVER, S-9, AROCLOR 1254, Method: PREINCUBATION) of the same compound?
**A.** inactive; negative

**Q.** And the mutagenic call (Test System: AMES SALMONELLA TYPHIMURIUM, Strain/Indicator: TA102, Metabolic Activation: NONE, Method: PREINCUBATION)?
**A.** inactive; negative

**Q.** What about the mutagenic call (Test System: AMES SALMONELLA TYPHIMURIUM, Strain/Indicator: TA102, Metabolic Activation: RAT, LIVER, S-9, AROCLOR 1254, Method: PREINCUBATION) of the same compound?
**A.** inactive; negative

**Q.** What about the mutagenic call (Test System: AMES SALMONELLA TYPHIMURIUM, Strain/Indicator: TA1535, Metabolic Activation: HAMSTER LIVER S-9, AROCLOR 1254, 10%, Method: PREINCUBATION) of the same compound?
**A.** inactive; negative

**Q.** What about the mutagenic call (Test System: AMES SALMONELLA TYPHIMURIUM, Strain/Indicator: TA1535, Metabolic Activation: NONE, Method: PREINCUBATION) of the same compound?
**A.** inactive; negative

**Q.** What about the mutagenic call (Test System: AMES SALMONELLA TYPHIMURIUM, Strain/Indicator: TA1535, Metabolic Activation: RAT LIVER S-9, AROCLOR 1254, 10%, Method: PREINCUBATION) of the same compound?
**A.** inactive; negative

**Q.** And the mutagenic call (Test System: AMES SALMONELLA TYPHIMURIUM, Strain/Indicator: TA1535, Metabolic Activation: RAT LIVER S-9, PHENOBARBITAL AND BETA-NAPHTHOFLAVONE, Method: PREINCUBATION)?
**A.** inactive; negative

**Q.** What about the mutagenic call (Test System: AMES SALMONELLA TYPHIMURIUM, Strain/Indicator: TA1537, Metabolic Activation: HAMSTER LIVER S-9, AROCLOR 1254, 10%, Method: PREINCUBATION) of the same compound?
**A.** inactive; negative

**Q.** What about the mutagenic call (Test System: AMES SALMONELLA TYPHIMURIUM, Strain/Indicator: TA1537, Metabolic Activation: NONE, Method: PREINCUBATION) of the same compound?
**A.** inactive; negative

**Q.** And the mutagenic call (Test System: AMES SALMONELLA TYPHIMURIUM, Strain/Indicator: TA1537, Metabolic Activation: RAT LIVER S-9, AROCLOR 1254, 10%, Method: PREINCUBATION)?
**A.** inactive; negative

**Q.** What about the mutagenic call (Test System: AMES SALMONELLA TYPHIMURIUM, Strain/Indicator: TA1537, Metabolic Activation: RAT LIVER S-9, PHENOBARBITAL AND BETA-NAPHTHOFLAVONE, Method: PREINCUBATION) of the same compound?
**A.** inactive; negative

**Q.** And the mutagenic call (Test System: E.COLI, Strain/Indicator: WP2UVRA, Metabolic Activation: NONE, Method: PREINCUBATION)?
**A.** inactive; negative

**Q.** And the mutagenic call (Test System: E.COLI, Strain/Indicator: WP2UVRA, Metabolic Activation: RAT LIVER S-9, PHENOBARBITAL AND BETA-NAPHTHOFLAVONE, Method: PREINCUBATION)?
**A.** inactive; negative

**Q.** What about the mutagenic call [2] of the same compound?
**A.** inactive; negative

**Q.** And the mutagenic call (Test System: MOUSE LYMPHOMA, Strain/Indicator: L5178Y (TK+/TK-), Metabolic Activation: RAT LIVER S-9, AROCLOR 1254, Method: SUSPENSION/PLATE)?
**A.** inactive; negative

**Q.** And the mutagenic call (Test System: UDS MOUSE HEPATOCYTES, Strain/Indicator: THYMIDINE INCORPORATION, Metabolic Activation: NONE, Method: IN VIVO/AUTORADIOGRAPHY)?
**A.** inactive; negative
